Test systems include Escherichia coli; Acinetobacter sp.; Aspergillus fumigatus; Pasteurella multocida; Staphylococcus aureus; Pseudomonas aeruginosa; Klebsiella pneumoniae; Bibersteinia trehalosi; Escherichia coli ML-35; Escherichia coli D21; Bacillus megaterium Bm11.
Holding throughout (assay): ≥ marks a high value that may be exact or a test limit, other limits are often not marked, values filed in µg/mL are converted to µM
Test [1] relates to Saccharomyces cerevisiae ATCC 9763.
Test [2] deals with Streptococcus pyogenes ATCC 12344.
For test [3], the system named is Trichophyton rubrum ATCC 28188.
In test [4] the test system is Salmonella typhimurium CMCC 50013.
The test system of test [5] is Shigella dysenteriae CMCC 51302.
Test [6] relates to Aspergillus niger ATCC 6275.
For test [7], the system named is Cryptococcus neoformans ATCC 32045.
Test [8] deals with Listeria monocytogenes CMCC 54002.
Test [9] concerns Aspergillus flavus ATCC 9643.
Test [10] deals with Candida albicans ATCC 10231.
In test [11] the test system is Escherichia coli ATCC 11775.
For test [12], the system named is Bacillus subtilis ATCC 6633.
Test [13] relates to Pseudomonas aeruginosa ATCC 25668.
The subject of test [14] is Mannheimia haemolytica Serovar 2.
The test system of test [15] is Klebsiella pneumoniae ATCC 13883.
Test [16] relates to Klebsiella aerogenes ATCC 13048.
The test system of test [17] is Mannheimia haemolytica Serovar 1.
Test [18] concerns Enterococcus faecalis ATCC 29212.
For test [19], the system named is Staphylococcus aureus ATCC 29213.
The subject of test [20] is Staphylococcus aureus ATCC 43300.
Test [21] concerns Fusobacterium nucleatum ATCC 25586.
Test [22] concerns Mannheimia haemolytica Serovar 6.
The subject of test [23] is Streptococcus mutans Ingbritt.
Test [24] deals with Acinetobacter baumannii ATCC 19606.
The subject of test [25] is Escherichia coli ATCC 25922.
Test [26] has as its system Salmonella enterica subsp. arizonae.
The subject of test [27] is Corynebacterium pseudotuberculosis ATCC 19410.
Test [28] relates to Bacillus subtilis ATCC 9372.
Test [29] relates to Burkholderia thailandensis.
Test [30] has as its system Bacillus anthracis Sterne 34F2.
The test system of test [31] is Salmonella enterica subsp. enterica serovar Typhimurium ATCC 14028.
Test [32] concerns Serratia marcescens ATCC 8100.
Test [33] deals with Staphylococcus epidermidis ATCC 12228.

≈ marks a conversion by molar mass, not a printed value.

By MIC is commonly meant the lowest concentration that inhibits growth of the organism. Low readings indicate greater potency, high ones weaker potency.

As for `CC(C)C[C@H](NC(=O)CN)C(=O)N[C@@H](C)C(=O)N[C@@H](CCCN=C(N)N)C(=O)N[C@@H](C)C(=O)N[C@@H](CC(C)C)C(=O)N[C@H](C(=O)N[C@@H](CCCN=C(N)N)C(=O)N[C@@H](CC(C)C)C(=O)N[C@@H](CC(C)C)C(=O)N[C@@H](CCCN=C(N)N)C(=O)N[C@@H](CCC(N)=O)C(=O)N[C@@H](CC(C)C)C(=O)N[C@H](C(=O)N[C@@H](CCCN=C(N)N)C(=O)N[C@@H](CCC(N)=O)C(=O)N[C@@H](CC(C)C)C(=O)N[C@H](C(=O)N[C@@H](CCCN=C(N)N)C(=O)N[C@@H](C)C(=O)O)[C@@H](C)O)[C@@H](C)O)[C@@H](C)O` [GLARALTRLLRQLTRQLTRA], the MIC is 16 µM (≈ 36.9 µg/mL) in test [1]; 4 µM (≈ 9.23 µg/mL) in test [2]; ≥ 32 µM in test [3]; 2 µM (≈ 4.62 µg/mL) in test [4]; 4 µM (≈ 9.23 µg/mL) in [5]; ≥ 32 µM in test [6]. In addition, the MIC was 16 µM (≈ 36.9 µg/mL) in test [7], 4 µM (≈ 9.23 µg/mL) in test [8], 8 µM (≈ 18.5 µg/mL) in test [9] and 8 µM (≈ 18.5 µg/mL) in test [10].
For `CC[C@H](C)[C@H](NC(C)=O)C(=O)N[C@@H](CCCCN)C(=O)N[C@@H](Cc1c[nH]c2ccccc12)C(=O)N[C@@H](C)C(=O)NCC(=O)N[C@@H](CCCCN)C(=O)N[C@@H](Cc1c[nH]c2ccccc12)C(=O)N[C@@H](Cc1c[nH]c2ccccc12)C(=O)N[C@@H](CCCCN)C(=O)N[C@@H](CC(C)C)C(=O)N[C@@H](Cc1ccccc1)C(=O)N[C@@H](CCCCN)C(N)=O` [IKWAGKWWKLFK], the MIC is 1.26 µM (≈ 2.05 µg/mL) in the test with Escherichia coli; 0.629 µM (≈ 1.03 µg/mL) in test [11]; 2.51 µM (≈ 4.1 µg/mL) against Acinetobacter sp.; 2.51 µM (≈ 4.1 µg/mL) in [12]; 0.629 µM (≈ 1.03 µg/mL) in test [13].
Turning to `CC[C@H](C)[C@H](NC(=O)[C@H](CCCN=C(N)N)NC(=O)[C@H](CCCN=C(N)N)NC(=O)[C@H](CC(C)C)NC(=O)[C@H](CC(N)=O)NC(=O)[C@@H](N)CCCCN)C(=O)N[C@H](C(=O)N[C@@H](CCCN=C(N)N)C(=O)N[C@@H](CCCCN)C(=O)N[C@H](C(=O)N[C@H](C(=O)N[C@@H](Cc1cnc[nH]1)C(=O)N[C@H](C(=O)N[C@H](C(=O)N[C@@H](CCCCN)C(=O)N[C@@H](CCCCN)C(=O)N[C@@H](Cc1ccc(O)cc1)C(=O)NCC(=O)O)[C@@H](C)CC)[C@@H](C)CC)[C@@H](C)CC)[C@@H](C)CC)[C@@H](C)CC` [KNLRRIIRKIIHIIKKYG], the minimal inhibitory concentration (MIC) in [14] is 0.265 µM (≈ 0.6 µg/mL); in [15], 7.7 µM (≈ 17.4 µg/mL); in test [16], ≥ 45.9 µM; in test [17], 0.663 µM (≈ 1.5 µg/mL); in [18], 78.8 µM (≈ 178 µg/mL); in the test on Aspergillus fumigatus, 4.42 µM (≈ 10 µg/mL). Besides, the MIC in test [19] is 138 µM (≈ 313 µg/mL); in test [20] it was > 250 µM; in the test on Pasteurella multocida, 0.265 µM (≈ 0.6 µg/mL); in [21] it was 4.2 µM (≈ 9.5 µg/mL); in test [22], 0.0884 µM (≈ 0.2 µg/mL); against Staphylococcus aureus, 6.63 µM (≈ 15 µg/mL). The MIC in the test on Pseudomonas aeruginosa worked out at 0.625 µM (≈ 1.41 µg/mL); in [23], 16.5 µM (≈ 37.3 µg/mL); in [24] it was 2.6 µM (≈ 5.88 µg/mL); in test [25] it was 9.6 µM (≈ 21.7 µg/mL); in test [26] it was 2.96 µM (≈ 6.7 µg/mL); against Klebsiella pneumoniae, 0.353 µM (≈ 0.8 µg/mL). Moreover, the MIC in the test on Bibersteinia trehalosi was 1.02 µM (≈ 2.3 µg/mL); in test [27], 8.84 µM (≈ 20 µg/mL).
Take `CSCC[C@H](NC(=O)[C@@H](NC(=O)[C@H](CC(N)=O)NC(C)=O)C(C)C)C(=O)N[C@H](C(=O)N[C@@H](Cc1ccc(O)cc1)C(=O)N[C@@H](Cc1c[nH]c2ccccc12)C(=O)N[C@@H](Cc1c[nH]c2ccccc12)C(=O)N[C@@H](CC(C)C)C(=O)N[C@@H](CC(=O)O)C(=O)N1CCC[C@H]1C(=O)N1CCC[C@H]1C(=O)N[C@@H](CC(C)C)C(N)=O)[C@@H](C)O` [NVMTYWWLDPPL]: the MIC in test [28] is ≥ 100 µM; in test [29], ≥ 50 µM; in test [30] it was ≥ 100 µM.
Regarding `CC(C)C[C@H](NC(=O)[C@H](Cc1ccc(O)cc1)NC(=O)[C@@H]1CCCN1C(=O)[C@@H]1CCCN1C(=O)[C@H](CCCN=C(N)N)NC(=O)[C@@H]1CCCN1C(=O)[C@H](CCCN=C(N)N)NC(=O)[C@H](CCCN=C(N)N)NC(=O)[C@@H](N)CCCN=C(N)N)C(=O)N1CCC[C@H]1C(=O)N[C@@H](CCCN=C(N)N)C(=O)N1CCC[C@H]1C(=O)N[C@@H](CCCN=C(N)N)C(=O)N1CCC[C@H]1C(=O)N1CCC[C@H]1C(=O)O` [RRRPRPPYLPRPRPP], the minimal inhibitory concentration (MIC) in the test on Escherichia coli ML-35 was 1 µM (≈ 1.91 µg/mL); in test [31], 0.125 µM (≈ 0.239 µg/mL); in the test on Escherichia coli D21, 0.5 µM (≈ 0.956 µg/mL); in [32] it was 4 µM (≈ 7.65 µg/mL); in test [33] it was > 64 µM; with Bacillus megaterium Bm11, 8 µM (≈ 15.3 µg/mL).
